The record followed here is patent EP0628046B1, “TRIAZOLOPYRIMIDIN DERIVATIVES AS ANTIOTENSIN II RECEPTOR ANTAGONISTS” (LABORATOIRES UPSA, priority 1992, dated 1993).

Assay [1] concerns récepteurs surrénaliens de l'angiotensine Il. As to the kind of experiment: Displacement of [125I]-SIAII radioligand from adrenal angiotensin II receptors (rat adrenal homogenate). It is filed as binding. Particulars: 60 min at 25°C. The text has this: L'affinité des produits des exemples pour les récepteurs de l'angiotensine Il est évaluée par technique de déplacement d'un radioligand spécifiquement fixé sur les récepteurs surrénaliens de l'angiotensine Il, chez le rat.
Une aliquote d'un homogénat de surrénales de rat incube en présence d'une concentration unique de [1251] - SIAII (Sar1, Tyr4, Ile8 - angiotensine il), antagoniste des récepteurs de l'angiotensine Il, et de deux concentrations d'agents compétiteurs (10^-5 M, 10^-7 M) durant 60 min à 25°C.
La réaction est achevée par ajout de tampon, puis rapide filtration à travers des filtres de papier de verre. La liaison non spécifique est déterminée en présence d'angiotensine II.
Les résultats sont exprimés, pour les concentrations testées, en pourcentage de déplacement du radioligand spécifiquement fixé sur les récepteurs surrénaliens de l'angiotensine il.
(Displacement assays read how much labelled ligand stays bound in the presence of the test substance.)

The test system of assay [2] is cellules musculaires lisses d'aortes de rat (CMLV). The experiment in a line: Inhibition of PDGF-induced cell proliferation (3H-thymidine incorporation) in rat aortic smooth muscle cells. It is filed as cell-based. Particulars: 1E - 4M; 1 h pretreatment, 22 h PDGF stimulation. The procedure:
B. Mesure de l'inhibition de la prolifération cellulaire induite par les facteurs de croissance (exemple : le Platelet-Derived Growth Factor ou PDGF) dans les cellules musculaires lisses d'aortes de rat
L'inhibition de la prolifération cellulaire induite par un facteur de croissance (exemple : le PDGF) est évaluée par mesure de l'incorporation de 3H-thymidine dans les cellules musculaires lisses d'aortes de rat (CMLV).
Les CMLV sont cultivées à 37°C, en 5 % C02, jusqu'à la sous-confluence puis placées pendant 24 heures en quiescence dans un milieu pauvre en sérum. Elles sont ensuite prétraitées pendant une heure par la molécule à tester (10^-4M) puis stimulées pendant 22 heures par un facteur de croissance (exemple : le PDGF). L'incorporation de 3H-thymidine est effectuée pendant les 4 dernières heures. Toutes ces étapes sont effectuées à 37°C, en 5 % CO2. La réaction est terminée par aspiration du milieu réactionnel, détachement des cellules, puis filtration des cellules lysées à travers des filtres en fibres de verre.
Les résultats sont exprimés en pourcentage d'inhibition de la stimulation d'incorporation de 3H-thymidine due à l'action du facteur de croissance.
(Uptake of a labelled nucleoside into DNA is a usual measure of proliferation.)

For the molecule `CCCc1c(Cc2ccc(-c3sccc3-c3nnn[nH]3)cc2)c(O)nc2ncnn12` [Exemple 79, 5-hydroxy-7-propyl-6-[4-[3-(1-H-tétrazol-5-yl)-2-thiényl]benzyl]-1,2,4-triazolo [1,5-a] pyrimidine], the “% de déplacement du ligand marqué” value in assay [1] (competitor 1E-5M, 10 µM) was determined as 58%; in assay [1] (competitor 1E-7M, 0.1 µM), 26%.
On to `CCCc1nc2ncnn2c(O)c1Cc1ccc(-c2ccccc2-c2nnn[nH]2)cc1` [Exemple 62, 7-hydroxy-5-propyl-6-[(2'-(1-H-tétrazol-5-yl)biphényl-4-yl)méthyl]-1,2,4-triazolo [1,5-a]pyrimidine], for which the “% de déplacement du ligand marqué” value in assay [1] (competitor 1E-5M, 10 µM) was determined as 65%; in assay [1] (competitor 1E-7M, 0.1 µM), 52%.
`CCCc1nc2nncn2c(O)c1Cc1ccc(-c2ccccc2-c2nnn[nH]2)cc1` [Exemple 65, 5-hydroxy-7-propyl-6-[(2'-(1-H-tétrazol-5-yl)biphényl-4-yl)méthyl]-1,2,4 triazolo [4,3-a] pyrimidine]: the “% de déplacement du ligand marqué” value in assay [1] (competitor 1E-5M, 10 µM) came out at 63%; in assay [1] (competitor 1E-7M, 0.1 µM) it was 47%.
Turning to `CCCc1nc2nc(CC)nn2c(O)c1Cc1ccc(-c2ccccc2-c2nnn[nH]2)cc1` [Exemple 68, 2-éthyl-7-hydroxy-5-propyl-6-[(2'-(1-H-tétrazol-5-yl)biphényl-4-yl)méthyl]-1,2,4-triazolo [1,5-a] pyrimidine], the “% de déplacement du ligand marqué” value in assay [1] (competitor 1E-5M, 10 µM) was 69%; in assay [1] (competitor 1E-7M, 0.1 µM) it was 59%.
As for “7-N,N-diethylamino-5-propyl-6-[(2'-(1-H-tétrazol-5-yl) biphényl-4-yl) méthyl]-1,2,4-triazolo [1,5-a] pyrimidine [Exemple 69]”, the “% inhibition de l'incorporation de 3H-thymidine induite par le PDGF” value in assay [2] is 100%. Moreover, the “% de déplacement du ligand marqué” value in assay [1] (competitor 1E-5M, 10 µM) turned out to be 69%; in assay [1] (competitor 1E-7M, 0.1 µM), 19%.
As to `CCCc1c(Cc2ccc(-c3ccccc3-c3nnn[nH]3)cc2)c(N(CC)CC)nc2ncnn12` [Exemple 76, 5-N,N-diéthylamino-7-propyl-6-[(2'-(1-H-tétrazol-5-yl)biphényl-4-yl)méthyl]-1,2,4-triazolo [1,5-a] pyrimidine], the “% de déplacement du ligand marqué” value in assay [1] (competitor 1E-5M, 10 µM) is recorded as 63%; in assay [1] (competitor 1E-7M, 0.1 µM) it was 28%.
With `CCCc1c(Cc2ccc(-c3ccccc3-c3nnn[nH]3)cc2)c(O)nc2ncnn12` [Exemple 63, 5-hydroxy-7-propyl-6-[(2'-(1-H-tétrazol-5-yl)biphényl-4-yl)méthyl]-1,2,4-triazolo [1,5-a] pyrimidine], the “% de déplacement du ligand marqué” value in assay [1] (competitor 1E-5M, 10 µM) is recorded as 61%; in assay [1] (competitor 1E-7M, 0.1 µM) it was 52%.
For the molecule `CCCc1c(Cc2ccc(-c3ccccc3-c3nnn[nH]3)cc2)c(O)nc2nc(N)nn12` [Exemple 75, 2-amino-5-hydroxy-7-propyl-6-[(2'-(1-H-tétrazol-5-yl)biphényl-4-yl)méthyl]-1,2,4-triazolo [1,5-a] pyrimidine], the “% de déplacement du ligand marqué” value in assay [1] (competitor 1E-5M, 10 µM) worked out at 61%; in assay [1] (competitor 1E-7M, 0.1 µM), 60%.
For the molecule `CCCc1c(Cc2ccc(-c3ccccc3-c3nnn[nH]3)cc2)c(N)nc2ncnn12` [Exemple 77, 5-amino-7-propyl-6-[(2'-(1-H-tétrazol-5-yl)biphényl-4-yl)méthyl]-1,2,4-triazolo [1,5-a] pyrimidine], the “% de déplacement du ligand marqué” value in assay [1] (competitor 1E-5M, 10 µM) is 63%; in assay [1] (competitor 1E-7M, 0.1 µM), 31%.
For `CCCCc1c(Cc2ccc(-c3ccccc3-c3nnn[nH]3)cc2)c(O)nc2nc(C)nn12` [Exemple 82, 7-butyl-5-hydroxy-2-méthyl-6-[(2'(1-H-tétrazol-5-yl)biphényl-4-yl)méthyl]-1,2,4-triazolo [1,5-a] pyrimidine], the “% de déplacement du ligand marqué” value amounted to 58% in assay [1] (competitor 1E-5M, 10 µM) and 11% in assay [1] (competitor 1E-7M, 0.1 µM).
